Test results: US10358434B2, “2-(3-pyridinyl)-1H-benzimidazole derivative compound and medicament containing same” (NIHON MEDI-PHYSICS CO., LTD., priority 2014, dated 2019)

Tests used:
[1] = Plasma stability evaluation (TLC analysis); format: in vitro ADME; conditions: 37° C., 60 minutes
Experimental: Evaluation was made using a heparin-treated normal human plasma pool (Kohjin Bio Co., Ltd.). Compounds [^18F] 100, [^18F] 200, [^123I] 400, [^18F] 500, and [^123I] 601 to 610 obtained by the methods shown in Examples 2, 4, 7, 9, 11, 13, 15, 17, 19, 21, 23, 25, 27, and 29 were each added to the aforementioned human plasma (5 mL), and the obtained mixture was then incubated at 37° C. for 60 minutes. Thereafter, the mixture was centrifuged with addition of methanol, so that a deproteinization treatment was carried out. Thereafter, stability was evaluated by TLC analysis. As TLC analysis conditions, the TLC analysis conditions applied upon the above described synthesis of each compound were applied.

[2] = tested on: human adrenal gland section expressing aldosterone-producing adenoma; assay: In vitro autoradiography using human adrenal adenoma; format: binding
Outline: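 Frozen 7-μm sections of human adrenal bearing aldosterone-producing adenoma were immersed 10 min in radioligand (5-33 kBq/mL) in PBS with 1% fatty-acid-free BSA, washed, then exposed to imaging plates for 16-20 h. Equal-area ROI PSL in adenoma (B2) versus normal cortex (B1) gave B2/B1, corrected for nuclide half-life, added activity and exposure time.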

[3] = In vivo kinetics experiment (radioactivity distribution); set-up: species or system Wistar male rat; conditions: rat; for Adrenal gland/blood ratio of radioactivity accumulation / Adrenal gland/fat ratio of radioactivity accumulation / Adrenal gland/kidney ratio of radioactivity accumulation / Adrenal gland/liver ratio of radioactivity accumulation / Adrenal gland/muscle ratio of radioactivity accumulation / Adrenal gland/small intestine ratio of radioactivity accumulation / Radioactivity distribution Adrenal gland / Radioactivity distribution Bladder (including urine) / Radioactivity distribution Blood / Radioactivity distribution Fat / Radioactivity distribution Femur / Radioactivity distribution Heart / Radioactivity distribution Kidney / Radioactivity distribution Large intestine / Radioactivity distribution Liver / Radioactivity distribution Lung / Radioactivity distribution Muscle (lower limbs) / Radioactivity distribution Remaining whole body / Radioactivity distribution Small intestine / Radioactivity distribution Spleen / Radioactivity distribution Stomach / Radioactivity distribution Testis / Radioactivity distribution Whole brain: caudal vein
Outline: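 Male Wistar rats (9 weeks) under isoflurane received approximately 1 to 3.7 MBq radiotracer in saline with 1 w/v % ascorbic acid by tail-vein injection. At 10, 30 and 60 min, rats were exsanguinated; blood, organs and remaining body weighed and counted, giving % ID/g and adrenal-to-tissue ratios.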

- Radiochemical purity after incubation in human plasma ([1]; TLC analysis): 88%
- Adrenal gland/blood ratio of radioactivity accumulation ([3]; 10 min after administration): 158.10 ± 31.05
- Adrenal gland/fat ratio of radioactivity accumulation ([3]; 10 min after administration): 210.51 ± 56.26
- Adrenal gland/kidney ratio of radioactivity accumulation ([3]; 10 min after administration): 14.57 ± 3.27
- Adrenal gland/liver ratio of radioactivity accumulation ([3]; 10 min after administration): 3.45 ± 0.50
- Adrenal gland/muscle ratio of radioactivity accumulation ([3]; 10 min after administration): 74.08 ± 27.27
- Adrenal gland/small intestine ratio of radioactivity accumulation ([3]; 10 min after administration): 13.90 ± 1.21
- Radioactivity distribution Adrenal gland ([3]; 10 min after administration): 18.45 ± 3.39 % ID/g
- Radioactivity distribution Bladder (including urine) ([3]; 10 min after administration): 0.86 ± 0.38 % ID/g
- Radioactivity distribution Blood ([3]; 10 min after administration): 0.12 ± 0.02 % ID/g
- Radioactivity distribution Fat ([3]; 10 min after administration): 0.09 ± 0.02 % ID/g
- Radioactivity distribution Femur ([3]; 10 min after administration): 0.25 ± 0.01 % ID/g
- Radioactivity distribution Heart ([3]; 10 min after administration): 0.31 ± 0.03 % ID/g
- Radioactivity distribution Kidney ([3]; 10 min after administration): 1.28 ± 0.08 % ID/g
- Radioactivity distribution Large intestine ([3]; 10 min after administration): 0.23 ± 0.03 % ID/g
- Radioactivity distribution Liver ([3]; 10 min after administration): 5.32 ± 0.21 % ID/g
- Radioactivity distribution Lung ([3]; 10 min after administration): 0.68 ± 0.08 % ID/g
- Radioactivity distribution Muscle (lower limbs) ([3]; 10 min after administration): 0.27 ± 0.08 % ID/g
- Radioactivity distribution Remaining whole body ([3]; 10 min after administration): 0.20 ± 0.02 % ID/g
- Radioactivity distribution Small intestine ([3]; 10 min after administration): 1.32 ± 0.13 % ID/g
- Radioactivity distribution Spleen ([3]; 10 min after administration): 0.93 ± 0.10 % ID/g
- Radioactivity distribution Stomach ([3]; 10 min after administration): 0.86 ± 0.06 % ID/g
- Radioactivity distribution Testis ([3]; 10 min after administration): 0.06 ± 0.01 % ID/g
- Radioactivity distribution Whole brain ([3]; 10 min after administration): 0.02 ± 0.00 % ID/g
- Adrenal gland/blood ratio of radioactivity accumulation ([3]; 30 min after administration): 206.39 ± 28.57
- Adrenal gland/fat ratio of radioactivity accumulation ([3]; 30 min after administration): 295.05 ± 101.53
- Adrenal gland/kidney ratio of radioactivity accumulation ([3]; 30 min after administration): 19.08 ± 3.40
- Adrenal gland/liver ratio of radioactivity accumulation ([3]; 30 min after administration): 4.39 ± 0.61
- Adrenal gland/muscle ratio of radioactivity accumulation ([3]; 30 min after administration): 160.44 ± 36.00
- Adrenal gland/small intestine ratio of radioactivity accumulation ([3]; 30 min after administration): 5.99 ± 1.25
- Radioactivity distribution Adrenal gland ([3]; 30 min after administration): 20.88 ± 2.82 % ID/g
- Radioactivity distribution Bladder (including urine) ([3]; 30 min after administration): 2.02 ± 1.20 % ID/g
- Radioactivity distribution Blood ([3]; 30 min after administration): 0.10 ± 0.01 % ID/g
- Radioactivity distribution Fat ([3]; 30 min after administration): 0.07 ± 0.02 % ID/g
- Radioactivity distribution Femur ([3]; 30 min after administration): 0.14 ± 0.01 % ID/g
- Radioactivity distribution Heart ([3]; 30 min after administration): 0.25 ± 0.02 % ID/g
- Radioactivity distribution Kidney ([3]; 30 min after administration): 1.10 ± 0.08 % ID/g
- Radioactivity distribution Large intestine ([3]; 30 min after administration): 0.28 ± 0.04 % ID/g
- Radioactivity distribution Liver ([3]; 30 min after administration): 4.76 ± 0.15 % ID/g
- Radioactivity distribution Lung ([3]; 30 min after administration): 0.44 ± 0.02 % ID/g
- Radioactivity distribution Muscle (lower limbs) ([3]; 30 min after administration): 0.13 ± 0.01 % ID/g
- Radioactivity distribution Remaining whole body ([3]; 30 min after administration): 0.11 ± 0.01 % ID/g
- Radioactivity distribution Small intestine ([3]; 30 min after administration): 3.54 ± 0.51 % ID/g
- Radioactivity distribution Spleen ([3]; 30 min after administration): 0.41 ± 0.06 % ID/g
- Radioactivity distribution Stomach ([3]; 30 min after administration): 1.11 ± 0.14 % ID/g
- Radioactivity distribution Testis ([3]; 30 min after administration): 0.08 ± 0.01 % ID/g
- Radioactivity distribution Whole brain ([3]; 30 min after administration): 0.01 ± 0.00 % ID/g
- Adrenal gland/blood ratio of radioactivity accumulation ([3]; 60 min after administration): 214.22 ± 75.71
- Adrenal gland/fat ratio of radioactivity accumulation ([3]; 60 min after administration): 371.37 ± 112.38
- Adrenal gland/kidney ratio of radioactivity accumulation ([3]; 60 min after administration): 17.62 ± 3.44
- Adrenal gland/liver ratio of radioactivity accumulation ([3]; 60 min after administration): 7.45 ± 2.80
- Adrenal gland/muscle ratio of radioactivity accumulation ([3]; 60 min after administration): 210.35 ± 70.86
- Adrenal gland/small intestine ratio of radioactivity accumulation ([3]; 60 min after administration): 4.17 ± 1.22
- Radioactivity distribution Adrenal gland ([3]; 60 min after administration): 21.41 ± 4.42 % ID/g
- Radioactivity distribution Bladder (including urine) ([3]; 60 min after administration): 3.87 ± 0.37 % ID/g
- Radioactivity distribution Blood ([3]; 60 min after administration): 0.10 ± 0.02 % ID/g
- Radioactivity distribution Fat ([3]; 60 min after administration): 0.06 ± 0.02 % ID/g
- Radioactivity distribution Femur ([3]; 60 min after administration): 0.12 ± 0.03 % ID/g
- Radioactivity distribution Heart ([3]; 60 min after administration): 0.24 ± 0.04 % ID/g
- Radioactivity distribution Kidney ([3]; 60 min after administration): 1.23 ± 0.22 % ID/g
- Radioactivity distribution Large intestine ([3]; 60 min after administration): 0.41 ± 0.09 % ID/g
- Radioactivity distribution Liver ([3]; 60 min after administration): 3.08 ± 0.99 % ID/g
- Radioactivity distribution Lung ([3]; 60 min after administration): 0.48 ± 0.04 % ID/g
- Radioactivity distribution Muscle (lower limbs) ([3]; 60 min after administration): 0.11 ± 0.03 % ID/g
- Radioactivity distribution Remaining whole body ([3]; 60 min after administration): 0.10 ± 0.02 % ID/g
- Radioactivity distribution Small intestine ([3]; 60 min after administration): 5.36 ± 1.39 % ID/g
- Radioactivity distribution Spleen ([3]; 60 min after administration): 0.32 ± 0.09 % ID/g
- Radioactivity distribution Stomach ([3]; 60 min after administration): 1.66 ± 0.45 % ID/g
- Radioactivity distribution Testis ([3]; 60 min after administration): 0.11 ± 0.03 % ID/g
- Radioactivity distribution Whole brain ([3]; 60 min after administration): 0.02 ± 0.00 % ID/g
SMILES: Fc1cc2nc(-c3cncc(Cn4ccnc4)c3)n(CCC[18F])c2cc1Cl [[^18F] 500, 6-Chloro-5-fluoro-1-(3-[^18F]fluoropropyl)-2-[5-(imidazol-1-ylmethyl)pyridin-3-yl]benzimidazole]
- stability in human plasma [1]: hardly metabolized and decomposed in the plasma
- accumulation of radioactivity in adrenal gland section (autoradiogram) ([2]; FIGS. 18 to 31): accumulation of radioactivity was selectively observed in a region in which aldosterone-producing adenoma had been pathologically observed
- B2/B1 accumulation ratio ([2]; section of FIG. 17(a)): 5.63
- B2 (PSL value, aldosterone-producing adenoma) ([2]; section of FIG. 17(a), site 71a): 3619
- B1 (PSL value, normal adrenal cortex) ([2]; section of FIG. 17(a), site 72a): 643
- accumulation of radioactivity in adrenal gland vs blood and peripheral tissues ([3]; Tables 9 to 22): high accumulation of radioactivity in adrenal gland was observed, in comparison to in blood and peripheral tissues
